Results taken from US10064865B2, “Composition comprising phosphodiesterase type 5 inhibitor for inhibiting apoptosis of nerve cells” (ARIBIO INC., priority 2012, dated 2018).
Marks after values point to notes of the source that are not given here.

Experiments:
Type in all cases: in vivo, Sprague-Dawley (SD) rats
[1] = system: neuron apoptosis-operated rats; assay: Example 1 body swing test
Experimental: Sensorimotor function was evaluated by use of limb placing de Ryck M et al., Stroke. 20:1383-90(1989)) and body swing (Borlongan and Sanberg, J Neurosci. 15:5372-8(1995)) tests. These tests were performed one day before neuron apoptosis to obtain a baseline and then at 1, 3, 7, 14, 21 and 28 days after neuron apoptosis. Behavioral tests were done before drug administration on days when both were scheduled. The investigator performing the surgery and behavioral assessments was blinded to treatment assignment.
Body swing tests: Animals were held approximately 2 cm from the base of its tail and elevated to an inch above a surface of a table. A swing was recorded whenever the rat moved its head out of the vertical axis to either side by more than 10° from vertical and then returned to the vertical position. Thirty total swings were counted per animal. After right-hemisphere neuron apoptosis, animals tend to swing to the contralateral (left) side. Thus, the numbers and percentages of body swings to the ipsilateral (right) side were recorded as a measure of recovery, with an intact animal scoring.
All data were expressed as mean±standard deviation (S.D.) of ten rats. Multiple comparison tests for different dose groups were conducted. Variance homogeneity was examined using the Levene test (Levene A, Clin Otalary, 1981; 6:145-51). […] Statistical analyses were conducted using SPSS (Release 14K, SPSS Inc., USA; Ludbrook, Clin Exp Pharmacol Physiol, 1997; 24:294-6). In addition, the percent changes between neuron apoptosis control and mirodenafil treated rats were calculated to help the understanding of the efficacy of test material as follow equation 3. Percentage changes as compared with neuron apoptosis control (%)=[((Data of mirodenafil treated groups−Data of neuron apoptosis control)/Data of neuron apoptosis control)×100] [EQUATION 3]

[2] = Example 2 body weight measurements; settings: for Body weights at 29 days after surgery [B] / Weight gains [B − A]: 1 mg/kg s.c. once a day for 14 days; for Body weights at Before surgery / Body weights at surgery [A]: before treatment
Experimental: Changes of body weight were measured at 1 day before neuron apoptosis, the day of neuron apoptosis, 1, 3, 7, 14, 21, 28 and 29 days after neuron apoptosis. […] Body weight gains (g) during 29 days after neuron apoptosis=(Body weight at the 29 days after neuron apoptosis−body weight at the day of neuron apoptosis) [EQUATION 5]
All data were expressed as mean±standard deviation (S.D.) of ten rats. Multiple comparison tests for different dose groups were conducted. Variance homogeneity was examined using the Levene test (Levene A, Clin Otalary, 1981; 6:145-51). […] Statistical analyses were conducted using SPSS for Windows (Release 14K, SPSS Inc., USA; Ludbrook, Clin Exp Pharmacol Physiol, 1997; 24:294-6). In addition, the percent changes as compared with neuron apoptosis control and mirodenafil treated rats were calculated to help the understanding of the efficacy of test substances as follow Equation 6 and 7. Percentage Changes as Compared with Sham Control (%)=[((Data of neuron apoptosis control−Data of sham control rat)/Data of sham control rats)×100] [EQUATION 6] Percentage Changes as Compared with neuron apoptosis Control (%)=[((Data of test material treated rats−Data of neuron apoptosis control rats)/Data of neuron apoptosis control rats)×100] [EQUATION 7]

[3] = system: neuron apoptosis-operated rats; assay: Example 2 forelimb placing test
Experimental: Sensorimotor function was evaluated by use of limb placing (de Ryck M et al., Stroke. 20:1383-90(1989)) and body swing (Borlongan and Sanberg, J Neurosci. 15:5372-8(1995)) tests. These tests were performed at 1 and 28 days after neuron apoptosis. The investigator performing the surgery and behavioral assessments was blinded to treatment assignment.
Limb placing test: Forelimb and hindlimb placement were assessed independently. For the forelimb placing test, the rats were held by their torso with their forepaws hanging free and moved slowly toward the edge of a tabletop, stopping short of touching the vibrissae (for vision-induced placing), touching the vibrissae (for vibrissae-induced placing), making light contact with the front of the forepaw to the edge of the tabletop (for tactile-induced placing), and pressing the forepaws to the edge of the table with increased pressure (for proprioceptive-induced placing). Hindlimb placing was conducted in the same manner as above but with tactile and proprioceptive stimulation applied to the front/top of each hindlimb. Each limb for placing in response to visual, vibrissae, tactile, and proprioceptive stimulation are scored in the following manner: normal performance=0 points; performance with unilateral limb=1 point; performance with a delay (2 seconds) and/or incomplete=2 point; no performance=3 points. A total of 12 points in forelimb placing test and 6 points in hindlimb placing test means maximal neurological deficit, and 0 points means normal performance.
All data were expressed as mean±standard deviation (S.D.) of ten rats. Multiple comparison tests for different dose groups were conducted. Variance homogeneity was examined using the Levene test (Levene A, Clin Otalary, 1981; 6:145-51). […] In addition, the percent changes as compared with neuron apoptosis control and mirodenafil treated rats were calculated to help the understanding of the efficacy of test substances as follow Equation 6 and 7. […]

[4] = 0.5 mg/kg group, day 1 after operation (before drug administration)
[5] = 0.5 mg/kg group, day −1 (baseline)
[6] = 0.5 mg/kg s.c. once a day, day 3 after operation
[7] = 0.5 mg/kg s.c. once a day, day 7 after operation
[8] = 0.5 mg/kg s.c. once a day, day 14 after operation
[9] = 0.5 mg/kg s.c. once a day, day 21 after operation
[10] = 0.5 mg/kg s.c. once a day, day 28 after operation
[11] = 1 mg/kg group, day 1 after operation (before drug administration)
[12] = 1 mg/kg group, day −1 (baseline)
[13] = 1 mg/kg s.c. once a day, day 3 after operation
[14] = 1 mg/kg s.c. once a day, day 7 after operation
[15] = 1 mg/kg s.c. once a day, day 14 after operation
[16] = 1 mg/kg s.c. once a day, day 21 after operation
[17] = 1 mg/kg s.c. once a day, day 28 after operation
[18] = 2 mg/kg group, day 1 after operation (before drug administration)
[19] = 2 mg/kg group, day −1 (baseline)
[20] = 2 mg/kg s.c. once a day, day 3 after operation
[21] = 2 mg/kg s.c. once a day, day 7 after operation
[22] = 2 mg/kg s.c. once a day, day 14 after operation
[23] = 2 mg/kg s.c. once a day, day 21 after operation
[24] = 2 mg/kg s.c. once a day, day 28 after operation
[25] = 1 mg/kg from 24 hrs after surgery
[26] = 1 mg/kg from 72 hrs after surgery
[27] = 1 mg/kg from 168 hrs after surgery

## CCCOc1ccc(S(=O)(=O)N2CCN(CCO)CC2)cc1-c1nc2c(CCC)cn(CC)c2c(=O)[nH]1 [Mirodenafil, mirodenafil]
[1]; [4]
  The numbers of body swings to the ipsilateral right sides/total 30 body swings: 1.40 ± 1.17^a
  The percentages of body swings to the ipsilateral right sides/total 30 body swings: 4.67 ± 3.91^a %
[1]; [5]
  The numbers of body swings to the ipsilateral right sides/total 30 body swings: 15.10 ± 0.99
  The percentages of body swings to the ipsilateral right sides/total 30 body swings: 50.33 ± 3.31%
[1]; [6]
  The numbers of body swings to the ipsilateral right sides/total 30 body swings: 2.10 ± 1.37^a
  The percentages of body swings to the ipsilateral right sides/total 30 body swings: 7.00 ± 4.57^a %
[1]; [7]
  The numbers of body swings to the ipsilateral right sides/total 30 body swings: 2.40 ± 1.26^a
  The percentages of body swings to the ipsilateral right sides/total 30 body swings: 8.00 ± 4.22^a %
[1]; [8]
  The numbers of body swings to the ipsilateral right sides/total 30 body swings: 4.20 ± 1.62^ac
  The percentages of body swings to the ipsilateral right sides/total 30 body swings: 14.00 ± 5.40^ac %
[1]; [9]
  The numbers of body swings to the ipsilateral right sides/total 30 body swings: 5.40 ± 1.26^ab
  The percentages of body swings to the ipsilateral right sides/total 30 body swings: 18.00 ± 4.22^ab %
[1]; [10]
  The numbers of body swings to the ipsilateral right sides/total 30 body swings: 6.20 ± 1.99^ac
  The percentages of body swings to the ipsilateral right sides/total 30 body swings: 20.67 ± 6.63^ac %
[1]; 0.5 mg/kg, 3 days after surgery
  numbers and percentages of body swings to ipsilateral right sides, change as compared with neuron apoptosis control: 16.67%
[1]; 0.5 mg/kg, 7 days after surgery
  numbers and percentages of body swings to ipsilateral right sides, change as compared with neuron apoptosis control: 9.09%
[1]; 0.5 mg/kg, 14 days after surgery
  numbers and percentages of body swings to ipsilateral right sides, change as compared with neuron apoptosis control: 44.83%
[1]; 0.5 mg/kg, 21 days after surgery
  numbers and percentages of body swings to ipsilateral right sides, change as compared with neuron apoptosis control: 50.00%
[1]; 0.5 mg/kg, 28 days after surgery
  numbers and percentages of body swings to ipsilateral right sides, change as compared with neuron apoptosis control: 44.19%
[1]; [11]
  The numbers of body swings to the ipsilateral right sides/total 30 body swings: 1.30 ± 0.95^a
  The percentages of body swings to the ipsilateral right sides/total 30 body swings: 4.33 ± 3.16^a %
[1]; [12]
  The numbers of body swings to the ipsilateral right sides/total 30 body swings: 15.10 ± 1.29
  The percentages of body swings to the ipsilateral right sides/total 30 body swings: 50.33 ± 4.29%
[1]; [13]
  The numbers of body swings to the ipsilateral right sides/total 30 body swings: 2.70 ± 0.82^a
  The percentages of body swings to the ipsilateral right sides/total 30 body swings: 9.00 ± 2.74^a %
[1]; [14]
  The numbers of body swings to the ipsilateral right sides/total 30 body swings: 3.10 ± 0.88^a
  The percentages of body swings to the ipsilateral right sides/total 30 body swings: 10.33 ± 2.92^a %
[1]; [15]
  The numbers of body swings to the ipsilateral right sides/total 30 body swings: 5.80 ± 1.23^ab
  The percentages of body swings to the ipsilateral right sides/total 30 body swings: 19.33 ± 4.10^ab %
[1]; [16]
  The numbers of body swings to the ipsilateral right sides/total 30 body swings: 7.30 ± 1.89^ab
  The percentages of body swings to the ipsilateral right sides/total 30 body swings: 24.33 ± 6.30^ab %
[1]; [17]
  The numbers of body swings to the ipsilateral right sides/total 30 body swings: 11.50 ± 1.58^ab
  The percentages of body swings to the ipsilateral right sides/total 30 body swings: 38.33 ± 5.27^ab %
[1]; 1 mg/kg, 3 days after surgery
  numbers and percentages of body swings to ipsilateral right sides, change as compared with neuron apoptosis control: 50.00%
[1]; 1 mg/kg, 7 days after surgery
  numbers and percentages of body swings to ipsilateral right sides, change as compared with neuron apoptosis control: 40.91%
[1]; 1 mg/kg, 14 days after surgery
  numbers and percentages of body swings to ipsilateral right sides, change as compared with neuron apoptosis control: 100.00%
[1]; 1 mg/kg, 21 days after surgery
  numbers and percentages of body swings to ipsilateral right sides, change as compared with neuron apoptosis control: 102.78%
[1]; 1 mg/kg, 28 days after surgery
  numbers and percentages of body swings to ipsilateral right sides, change as compared with neuron apoptosis control: 167.44%
[1]; [18]
  The numbers of body swings to the ipsilateral right sides/total 30 body swings: 1.20 ± 0.63^a
  The percentages of body swings to the ipsilateral right sides/total 30 body swings: 4.00 ± 2.11^a %
[1]; [19]
  The numbers of body swings to the ipsilateral right sides/total 30 body swings: 15.00 ± 1.15
  The percentages of body swings to the ipsilateral right sides/total 30 body swings: 50.00 ± 3.85%
[1]; [20]
  The numbers of body swings to the ipsilateral right sides/total 30 body swings: 3.00 ± 0.82^ac
  The percentages of body swings to the ipsilateral right sides/total 30 body swings: 10.00 ± 2.72^ac %
[1]; [21]
  The numbers of body swings to the ipsilateral right sides/total 30 body swings: 3.20 ± 0.63^ac
  The percentages of body swings to the ipsilateral right sides/total 30 body swings: 10.67 ± 2.11^ac %
[1]; [22]
  The numbers of body swings to the ipsilateral right sides/total 30 body swings: 6.00 ± 1.56^ab
  The percentages of body swings to the ipsilateral right sides/total 30 body swings: 20.00 ± 5.21^ab %
[1]; [23]
  The numbers of body swings to the ipsilateral right sides/total 30 body swings: 8.80 ± 1.23^ab
  The percentages of body swings to the ipsilateral right sides/total 30 body swings: 29.33 ± 4.10^ab %
[1]; [24]
  The numbers of body swings to the ipsilateral right sides/total 30 body swings: 11.10 ± 1.91^ab
  The percentages of body swings to the ipsilateral right sides/total 30 body swings: 37.00 ± 6.37^ab %
[1]; 2 mg/kg, 3 days after surgery
  numbers and percentages of body swings to ipsilateral right sides, change as compared with neuron apoptosis control: 66.67%
[1]; 2 mg/kg, 7 days after surgery
  numbers and percentages of body swings to ipsilateral right sides, change as compared with neuron apoptosis control: 45.45%
[1]; 2 mg/kg, 14 days after surgery
  numbers and percentages of body swings to ipsilateral right sides, change as compared with neuron apoptosis control: 106.90%
[1]; 2 mg/kg, 21 days after surgery
  numbers and percentages of body swings to ipsilateral right sides, change as compared with neuron apoptosis control: 144.44%
[1]; 2 mg/kg, 28 days after surgery
  numbers and percentages of body swings to ipsilateral right sides, change as compared with neuron apoptosis control: 158.14%
[2]; [25]
  body weight gains during 29 days, change as compared with neuron apoptosis control: 43.24%
[2]; [26]
  body weight gains during 29 days, change as compared with neuron apoptosis control: 33.78%
[2]; [27]
  body weight gains during 29 days, change as compared with neuron apoptosis control: 11.04%
[2]; start 24 hrs after operation
  Body weights at 29 days after surgery [B]: 357.13 ± 15.38^ab g
  Weight gains [B − A]: 79.50 ± 14.09^ab g
[2]; start 72 hrs after operation
  Body weights at 29 days after surgery [B]: 349.38 ± 10.28^ac g
  Weight gains [B − A]: 74.25 ± 14.95^ab g
[2]; start 168 hrs after operation
  Body weights at 29 days after surgery [B]: 338.63 ± 15.26^a g
  Weight gains [B − A]: 61.63 ± 6.78^a g
[2]; 1 mg/kg start 24 hrs group
  Body weights at Before surgery: 307.75 ± 15.84 g
  Body weights at surgery [A]: 277.63 ± 15.07 g
[2]; 1 mg/kg start 72 hrs group
  Body weights at Before surgery: 307.25 ± 11.36 g
  Body weights at surgery [A]: 275.13 ± 12.21 g
[2]; 1 mg/kg start 168 hrs group
  Body weights at Before surgery: 307.88 ± 10.53 g
  Body weights at surgery [A]: 277.00 ± 10.41 g
[3]; [25]
  forelimb placing test scores at 28 days, change as compared with neuron apoptosis control: −57.41%
[3]; [26]
  forelimb placing test scores at 28 days, change as compared with neuron apoptosis control: −29.63%
[3]; [27]
  forelimb placing test scores at 28 days, change as compared with neuron apoptosis control: −11.11%
